Consider 2 molecules from ChEMBL document CHEMBL2203000, “Discovery of AC710, a Globally Selective Inhibitor of Platelet-Derived Growth Factor Receptor-Family Kinases” (ACS Med Chem Lett, 2012).

The structures appear in SMILES notation.

For data set [1], the system named is Rattus norvegicus. Briefly: (§1) AUC in Sprague-Dawley rat plasma at 10 mg/kg, po by LC-MS/MS analysis. Type of data set: ADME, organism-based. On the set-up: dose 10 mg/kg, route oral. The following applies: in vivo.
The subject of data set [2] is Rattus norvegicus. Briefly: (§2) Oral bioavailability in Sprague-Dawley rat plasma at 10 mg/kg by LC-MS/MS analysis. The following applies: in vivo. In kind it is ADME, organism-based.
Data set [3] deals with T1, Receptor-type tyrosine-protein kinase FLT3 (Homo sapiens, UniProt P36888).
T1 sequence (P36888 whole entry): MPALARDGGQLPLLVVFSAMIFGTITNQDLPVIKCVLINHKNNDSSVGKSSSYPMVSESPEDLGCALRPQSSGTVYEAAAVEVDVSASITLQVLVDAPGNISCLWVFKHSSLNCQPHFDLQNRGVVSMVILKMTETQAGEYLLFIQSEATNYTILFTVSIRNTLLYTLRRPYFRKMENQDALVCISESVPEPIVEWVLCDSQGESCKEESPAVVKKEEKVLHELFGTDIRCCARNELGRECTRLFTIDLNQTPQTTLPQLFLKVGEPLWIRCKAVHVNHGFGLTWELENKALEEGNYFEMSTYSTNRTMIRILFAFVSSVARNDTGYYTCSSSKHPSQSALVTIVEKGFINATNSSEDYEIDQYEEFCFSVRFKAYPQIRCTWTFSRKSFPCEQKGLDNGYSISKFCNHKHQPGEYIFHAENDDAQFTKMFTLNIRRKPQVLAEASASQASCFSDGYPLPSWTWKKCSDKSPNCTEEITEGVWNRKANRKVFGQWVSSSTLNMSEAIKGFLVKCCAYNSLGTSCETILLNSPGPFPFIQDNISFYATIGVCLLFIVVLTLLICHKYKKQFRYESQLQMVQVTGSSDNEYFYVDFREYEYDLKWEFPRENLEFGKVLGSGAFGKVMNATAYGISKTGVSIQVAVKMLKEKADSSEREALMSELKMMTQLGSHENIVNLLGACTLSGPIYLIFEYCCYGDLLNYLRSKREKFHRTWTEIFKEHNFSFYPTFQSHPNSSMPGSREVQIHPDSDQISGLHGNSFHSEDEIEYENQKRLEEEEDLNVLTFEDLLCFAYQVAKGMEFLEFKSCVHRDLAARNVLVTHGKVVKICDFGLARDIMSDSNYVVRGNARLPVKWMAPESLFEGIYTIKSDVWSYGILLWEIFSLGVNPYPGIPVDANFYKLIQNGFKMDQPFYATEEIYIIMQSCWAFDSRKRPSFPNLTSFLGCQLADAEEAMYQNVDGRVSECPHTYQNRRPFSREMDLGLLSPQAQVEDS
Nature of the data set: Binding affinity to FLT3 expressed in HEK-293 cells after 1 hr. Type of data set: cell-based, HEK293.

Data set [4] deals with T2, Cytochrome P450 1A2 (Homo sapiens, UniProt P05177).
T2 sequence (P05177 whole entry): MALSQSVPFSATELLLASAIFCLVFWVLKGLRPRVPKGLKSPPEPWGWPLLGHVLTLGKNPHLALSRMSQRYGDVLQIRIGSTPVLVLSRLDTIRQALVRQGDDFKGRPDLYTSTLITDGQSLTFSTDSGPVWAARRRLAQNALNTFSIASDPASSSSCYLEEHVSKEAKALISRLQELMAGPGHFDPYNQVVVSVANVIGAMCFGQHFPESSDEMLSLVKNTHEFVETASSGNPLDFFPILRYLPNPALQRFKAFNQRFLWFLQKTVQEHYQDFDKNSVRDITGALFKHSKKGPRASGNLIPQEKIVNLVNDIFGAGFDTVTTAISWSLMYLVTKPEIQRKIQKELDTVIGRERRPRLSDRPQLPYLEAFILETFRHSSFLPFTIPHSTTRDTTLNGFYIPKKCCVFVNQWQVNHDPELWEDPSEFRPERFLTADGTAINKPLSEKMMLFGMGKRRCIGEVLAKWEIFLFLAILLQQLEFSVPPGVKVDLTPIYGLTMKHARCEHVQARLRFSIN
Briefly: Inhibition of CYP1A2. Type of data set: ADME.

The nature of data set [5]: Antitumor activity against mouse M-NFS-60 cells xenografted in CD-1 nude mouse assessed as inhibition of tumor growth at 3 mg/kg, po measured after 4 of tumor implantation. In kind it is functional. The following applies: read-out: TGI.
Data set [6] has as its system Mus musculus. Nature of the data set: Toxicity in collagen-induced arthritis mouse assessed as body weight and body condition at 3 to 30 mg/kg for 15 days. Type of data set: organism-based. On the set-up: dose 3-30 mg/kg. The settings on record: in vivo, 360 h.
In a further data set the target is Cytochrome P450 2C9 (Homo sapiens, UniProt P11712). Nature of the data set: Inhibition of CYP2C9. Type of data set: ADME.
Sequence of Cytochrome P450 2C9 (P11712 whole entry): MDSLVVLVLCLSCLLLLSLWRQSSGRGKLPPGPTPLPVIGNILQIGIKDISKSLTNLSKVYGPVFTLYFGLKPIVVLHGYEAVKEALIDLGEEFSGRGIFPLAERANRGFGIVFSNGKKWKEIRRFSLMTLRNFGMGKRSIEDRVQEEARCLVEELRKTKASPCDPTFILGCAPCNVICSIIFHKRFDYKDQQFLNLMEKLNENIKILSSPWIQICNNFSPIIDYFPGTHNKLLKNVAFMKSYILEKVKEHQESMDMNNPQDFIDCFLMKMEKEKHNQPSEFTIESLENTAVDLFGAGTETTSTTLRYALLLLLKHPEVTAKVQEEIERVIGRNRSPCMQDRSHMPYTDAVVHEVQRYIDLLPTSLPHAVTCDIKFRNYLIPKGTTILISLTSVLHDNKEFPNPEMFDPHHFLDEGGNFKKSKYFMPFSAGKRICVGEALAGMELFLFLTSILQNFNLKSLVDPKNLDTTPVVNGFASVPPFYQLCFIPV
In data set [7] the target is T3, Cytochrome P450 2D6 (Homo sapiens, UniProt P10635). Briefly: Induction of CYP2D6 at 3 to 30 uM. In kind it is ADME.
T3 sequence (P10635 whole entry): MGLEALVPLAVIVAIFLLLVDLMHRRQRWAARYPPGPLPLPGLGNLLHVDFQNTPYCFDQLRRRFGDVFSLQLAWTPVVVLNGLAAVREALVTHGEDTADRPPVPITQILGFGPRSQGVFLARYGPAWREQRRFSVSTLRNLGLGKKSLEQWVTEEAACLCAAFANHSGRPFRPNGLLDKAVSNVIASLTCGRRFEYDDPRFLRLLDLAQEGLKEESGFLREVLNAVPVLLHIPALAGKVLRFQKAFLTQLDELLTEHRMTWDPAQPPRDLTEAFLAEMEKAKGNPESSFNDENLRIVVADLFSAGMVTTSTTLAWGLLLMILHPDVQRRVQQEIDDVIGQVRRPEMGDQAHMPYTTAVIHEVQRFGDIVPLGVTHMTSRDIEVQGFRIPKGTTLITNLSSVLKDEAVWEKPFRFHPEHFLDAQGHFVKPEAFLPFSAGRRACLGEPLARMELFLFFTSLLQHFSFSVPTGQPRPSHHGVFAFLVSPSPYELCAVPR
In data set [8] the target is T4, Mast/stem cell growth factor receptor Kit (Homo sapiens, UniProt P10721). Briefly: Binding affinity to KIT expressed in HEK-293 cells. In kind it is cell-based, HEK293.
T4 sequence (P10721 whole entry): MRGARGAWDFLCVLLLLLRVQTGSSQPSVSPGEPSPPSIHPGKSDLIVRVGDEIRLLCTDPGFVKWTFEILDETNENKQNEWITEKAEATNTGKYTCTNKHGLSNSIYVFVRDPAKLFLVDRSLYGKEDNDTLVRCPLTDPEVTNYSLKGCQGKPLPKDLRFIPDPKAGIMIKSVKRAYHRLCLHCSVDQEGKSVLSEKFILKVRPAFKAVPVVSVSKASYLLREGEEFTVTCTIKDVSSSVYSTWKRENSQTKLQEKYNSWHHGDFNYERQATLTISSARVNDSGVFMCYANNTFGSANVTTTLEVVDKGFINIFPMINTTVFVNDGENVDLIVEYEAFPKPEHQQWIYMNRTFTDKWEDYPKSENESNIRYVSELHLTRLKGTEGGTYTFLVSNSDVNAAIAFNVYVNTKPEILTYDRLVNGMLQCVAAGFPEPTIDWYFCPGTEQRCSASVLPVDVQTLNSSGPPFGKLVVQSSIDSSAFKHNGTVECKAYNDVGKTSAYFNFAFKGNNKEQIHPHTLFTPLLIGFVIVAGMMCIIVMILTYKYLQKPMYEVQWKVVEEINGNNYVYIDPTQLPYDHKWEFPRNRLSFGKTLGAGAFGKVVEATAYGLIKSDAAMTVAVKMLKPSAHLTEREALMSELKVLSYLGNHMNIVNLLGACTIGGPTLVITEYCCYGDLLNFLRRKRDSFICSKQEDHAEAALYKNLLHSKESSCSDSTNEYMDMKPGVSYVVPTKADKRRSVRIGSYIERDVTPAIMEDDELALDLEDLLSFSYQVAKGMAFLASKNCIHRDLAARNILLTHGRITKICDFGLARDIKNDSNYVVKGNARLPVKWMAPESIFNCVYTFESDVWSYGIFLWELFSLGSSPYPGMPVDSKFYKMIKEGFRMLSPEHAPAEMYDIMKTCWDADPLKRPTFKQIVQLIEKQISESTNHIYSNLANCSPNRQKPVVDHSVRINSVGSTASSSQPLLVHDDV
Data set [9] can be described thus: AUC in po dosed CD-1 mouse by LC-MS/MS analysis. The following applies: plasma. Type of data set: ADME, organism-based.
Data set [10] concerns Rattus norvegicus. Briefly: Toxicity in rat assessed as mortality at 800 mg/kg administered for 7 days. Type of data set: organism-based. Details: dose 800 mg/kg; call rule not given here. The settings on record: in vivo, 168 h.
Data set [11] relates to Rattus norvegicus. Nature of the data set: Toxicity in rat assessed as diarrhea at 800 mg/kg administered for 7 days. In kind it is organism-based. On the set-up: dose 800 mg/kg. The settings on record: in vivo, 168 h.
In data set [12] the target is T5, Macrophage colony-stimulating factor 1 receptor (Homo sapiens, UniProt P07333). Briefly: Binding affinity to CSF1R expressed in HEK-293 cells after 1 hr. Type of data set: cell-based, HEK293.
T5 sequence (P07333 whole entry): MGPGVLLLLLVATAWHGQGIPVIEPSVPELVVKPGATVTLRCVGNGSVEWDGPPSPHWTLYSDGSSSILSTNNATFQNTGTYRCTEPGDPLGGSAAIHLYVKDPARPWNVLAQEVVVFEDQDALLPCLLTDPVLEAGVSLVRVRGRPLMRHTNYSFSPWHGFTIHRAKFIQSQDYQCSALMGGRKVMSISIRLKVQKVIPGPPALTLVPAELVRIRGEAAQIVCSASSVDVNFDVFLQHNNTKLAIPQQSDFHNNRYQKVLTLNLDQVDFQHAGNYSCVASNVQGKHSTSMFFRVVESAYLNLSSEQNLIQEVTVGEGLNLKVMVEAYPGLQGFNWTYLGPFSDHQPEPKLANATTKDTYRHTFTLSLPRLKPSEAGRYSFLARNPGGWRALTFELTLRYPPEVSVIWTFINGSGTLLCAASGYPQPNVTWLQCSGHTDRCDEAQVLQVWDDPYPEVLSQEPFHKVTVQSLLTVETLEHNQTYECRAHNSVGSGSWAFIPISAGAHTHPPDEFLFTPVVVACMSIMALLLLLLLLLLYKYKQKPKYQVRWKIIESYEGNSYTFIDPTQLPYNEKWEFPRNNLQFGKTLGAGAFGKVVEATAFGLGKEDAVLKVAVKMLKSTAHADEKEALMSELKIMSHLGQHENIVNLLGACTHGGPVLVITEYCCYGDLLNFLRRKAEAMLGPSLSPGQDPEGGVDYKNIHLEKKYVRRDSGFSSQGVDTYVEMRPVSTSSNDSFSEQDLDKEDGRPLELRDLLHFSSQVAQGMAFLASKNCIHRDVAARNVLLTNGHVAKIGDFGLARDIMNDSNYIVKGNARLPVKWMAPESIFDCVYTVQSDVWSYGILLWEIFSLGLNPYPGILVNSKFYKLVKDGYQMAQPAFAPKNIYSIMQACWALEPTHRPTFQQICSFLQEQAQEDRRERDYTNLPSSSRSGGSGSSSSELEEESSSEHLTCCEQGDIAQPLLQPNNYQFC
A further data set addresses Cytochrome P450 3A4 (Homo sapiens, UniProt P08684). Briefly: Induction of CYP3A4 at 3 to 30 uM. Type of data set: ADME.
The target of data set [13] is T3, Cytochrome P450 2D6. Briefly: Inhibition of CYP2D6. Type of data set: ADME.
In data set [14] the target is T1, Receptor-type tyrosine-protein kinase FLT3. Nature of the data set: Inhibition of FLT3 phosphorylation in human MV4-11 cells. Type of data set: cell-based.
Data set [15] relates to Rattus norvegicus. Nature of the data set: Toxicity in rat at 200 mg/kg administered for 7 days. Type of data set: organism-based. On the set-up: dose 200 mg/kg. The settings on record: in vivo, 168 h.
Data set [16] can be described thus: as §1. Type of data set: ADME, organism-based. On the set-up: dose 10 mg/kg, route oral. The following applies: Sprague-Dawley, plasma.
Data set [17] is described as follows: Clearance in Sprague-Dawley rat plasma at 1 mg/kg, iv and 10 mg/kg, po by LC-MS/MS analysis. In kind it is ADME, organism-based.
For data set [18], the target named is T5, Macrophage colony-stimulating factor 1 receptor. Briefly: Inhibition of M-CSF-induced […] -fussed CSF1R phosphorylation expressed in HEK293 cells after 2 hrs by sandwich ELISA. Type of data set: cell-based.
For data set [19], the target named is T4, Mast/stem cell growth factor receptor Kit. Briefly: Inhibition of KIT phosphorylation in human H526 cells. In kind it is cell-based.
In data set [20] the target is Platelet-derived growth factor receptor alpha (Homo sapiens, UniProt P16234). Briefly: Binding affinity to PDGFRalpha expressed in HEK-293 cells. Type of data set: cell-based, HEK293.
Data set [21] concerns the target T6, Platelet-derived growth factor receptor beta (Homo sapiens, UniProt P09619). Briefly: Inhibition of PDGFRbeta phosphorylation in human MG63 cells. In kind it is cell-based, MG-63.
Target sequence in this assay (P09619 whole entry, looked up): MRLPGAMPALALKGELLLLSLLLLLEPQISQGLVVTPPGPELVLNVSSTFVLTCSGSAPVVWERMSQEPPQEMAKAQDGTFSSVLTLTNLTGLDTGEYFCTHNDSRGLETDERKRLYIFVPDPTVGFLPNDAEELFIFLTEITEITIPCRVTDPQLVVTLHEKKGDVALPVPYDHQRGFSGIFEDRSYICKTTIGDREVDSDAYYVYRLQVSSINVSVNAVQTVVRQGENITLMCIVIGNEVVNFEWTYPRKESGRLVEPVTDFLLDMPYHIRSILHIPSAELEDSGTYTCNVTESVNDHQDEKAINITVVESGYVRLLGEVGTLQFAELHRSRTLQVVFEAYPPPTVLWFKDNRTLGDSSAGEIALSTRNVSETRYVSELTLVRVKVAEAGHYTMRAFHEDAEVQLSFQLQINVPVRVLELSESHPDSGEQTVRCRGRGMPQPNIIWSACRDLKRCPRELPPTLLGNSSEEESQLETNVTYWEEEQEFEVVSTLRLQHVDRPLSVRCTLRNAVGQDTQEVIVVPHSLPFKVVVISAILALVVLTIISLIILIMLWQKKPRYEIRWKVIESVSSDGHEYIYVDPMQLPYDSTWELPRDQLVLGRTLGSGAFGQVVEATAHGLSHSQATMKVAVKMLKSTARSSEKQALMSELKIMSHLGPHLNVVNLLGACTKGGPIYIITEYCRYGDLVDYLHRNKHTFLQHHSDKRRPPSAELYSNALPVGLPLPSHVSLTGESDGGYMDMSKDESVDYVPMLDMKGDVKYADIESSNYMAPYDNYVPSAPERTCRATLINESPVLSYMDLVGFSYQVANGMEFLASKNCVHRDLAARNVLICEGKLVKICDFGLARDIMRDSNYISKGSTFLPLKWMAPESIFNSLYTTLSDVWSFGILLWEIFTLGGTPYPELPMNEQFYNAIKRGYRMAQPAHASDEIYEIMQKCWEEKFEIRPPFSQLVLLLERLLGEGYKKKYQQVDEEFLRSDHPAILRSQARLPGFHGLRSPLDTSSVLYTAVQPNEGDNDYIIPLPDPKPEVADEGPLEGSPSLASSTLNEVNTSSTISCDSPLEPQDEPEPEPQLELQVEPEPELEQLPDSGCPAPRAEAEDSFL
Data set [22] concerns the target T2, Cytochrome P450 1A2. Briefly: Induction of CYP1A2 at 3 to 30 uM. In kind it is ADME.
Data set [23] deals with Mus musculus. Briefly: Toxicity in human MV4-11 cells xenografted in SCID mouse assessed as change in body weight at 0.3 to 30 mg/kg foe 2 weeks. In kind it is organism-based. On the set-up: dose 0.3-30 mg/kg. The following applies: in vivo, 336 h. In general terms: A xenograft is tissue or cells of one species grown in another, often human tumour cells in immunodeficient mice.

Data set [24] in a line: Antitumor activity against mouse M-NFS-60 cells xenografted in CD-1 nude mouse assessed as inhibition of tumor growth at 30 mg/kg, po measured after 4 of tumor implantation. In kind it is functional. The following applies: read-out: TGI.
The nature of data set [25]: Antitumor activity against mouse M-NFS-60 cells xenografted in CD-1 nude mouse assessed as inhibition of tumor growth at 10 mg/kg, po measured after 4 of tumor implantation. In kind it is functional. The following applies: read-out: TGI.
Data set [26] has as its target T6, Platelet-derived growth factor receptor beta. Nature of the data set: Binding affinity to PDGFRbeta expressed in HEK-293 cells. Type of data set: cell-based, HEK293.
Target sequence in this assay (P09619 whole entry): as the sequence (P09619 whole entry, looked up) above
The target in the next data set is Cytochrome P450 2C19 (Homo sapiens, UniProt P33261). Nature of the data set: Inhibition of CYP2C19. Type of data set: ADME.
A short description of data set [27]: as §2. In kind it is ADME, organism-based. The settings on record: Sprague-Dawley, plasma.

Sequence of Cytochrome P450 3A4 (P08684 whole entry): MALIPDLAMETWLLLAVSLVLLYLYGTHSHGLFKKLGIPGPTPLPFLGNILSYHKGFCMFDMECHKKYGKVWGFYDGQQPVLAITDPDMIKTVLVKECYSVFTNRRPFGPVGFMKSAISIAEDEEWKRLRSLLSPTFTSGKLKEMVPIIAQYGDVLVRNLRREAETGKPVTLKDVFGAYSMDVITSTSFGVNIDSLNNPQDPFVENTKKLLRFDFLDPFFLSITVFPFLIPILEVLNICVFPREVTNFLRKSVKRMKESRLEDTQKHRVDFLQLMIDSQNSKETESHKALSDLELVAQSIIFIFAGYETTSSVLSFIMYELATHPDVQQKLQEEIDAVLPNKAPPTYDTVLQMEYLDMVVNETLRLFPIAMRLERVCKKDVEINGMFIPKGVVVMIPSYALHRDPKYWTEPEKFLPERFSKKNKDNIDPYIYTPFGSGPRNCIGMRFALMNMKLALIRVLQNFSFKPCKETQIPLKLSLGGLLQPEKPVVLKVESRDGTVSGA

What is called AUC is the area under the concentration-time curve, a measure of exposure. A higher AUC goes with more exposure. For `CC(C)(C)c1cc(NC(=O)Nc2ccc(NC(=O)c3ccc(OC4CCNCC4)cn3)cc2)no1`, the AUC in the data set with Rattus norvegicus [1] amounted to 1.6 µM·h. In the data set with Rattus norvegicus [2], this molecule had an F of 1%.
In general, Kd refers to a measure of binding affinity in units of concentration. A lower Kd goes with higher affinity. The IC50 is the concentration at which inhibition is half-maximal. Low readings indicate inhibition by little substance, high ones a need for much substance. The bioavailability is the share of a dose that reaches the circulation, judged against a reference dose that is usually intravenous. A high value points to good availability. Turning to `CCN1C(C)(C)CC(Oc2ccc(C(=O)Nc3ccc(NC(=O)Nc4cc(C(C)(C)C)on4)cc3)nc2)CC1(C)C`, the Kd in data set [3] amounted to 0.5 nM; in data set [8], 1 nM; in [12], 1.57 nM; in data set [20] it was 1.3 nM; in [26] it was 1 nM. Besides, the IC50 against Cytochrome P450 1A2 [4] is over 40000 nM; at Cytochrome P450 2C9 it was over 40000 nM; at Cytochrome P450 2D6 [13], over 40000 nM; in data set [14] it was 2 nM; in data set [18], 10.5 nM; in data set [19], 1.2 nM. In addition, the IC50 in data set [21] was 7.7 nM; against Cytochrome P450 2C19, over 40000 nM. Also, in data set [5], the inhibition in vivo at 3 mg/kg was found to be 29%. Also, the Activity entry with Mus musculus [6] is listed as “Non-toxic”; on Cytochrome P450 2D6 [7], “Not Active”; with Rattus norvegicus [10], “Non-toxic”; with Rattus norvegicus [11], “Toxic”; at Cytochrome P450 3A4 it was “Not Active”; in the data set on Rattus norvegicus [15] it was “Non-toxic”. Further, the figures for the Activity entry at Cytochrome P450 1A2 [22] and with Mus musculus [23] were “Not Active” and “Non-toxic”, respectively. The values for the AUC in data set [9] and in data set [16] were 56.4 µM·h and 10 µM·h, respectively. In [17], this molecule registered a clearance of 14 mL/min/kg. The inhibition in vivo at 30 mg/kg in [24] came to 79%. Besides, the inhibition in vivo at 10 mg/kg in data set [25] came to 54%. The same molecule registered a bioavailability in data set [27] of 44%.
